{
  "source": "patent US8361780B2",
  "about": "“Biological system and assay for identifying modulators of tubulin ligases” (University of Georgia Research Foundation, Inc., priority 2005, dated 2013)",
  "key": {"[1]": {"test_system": "ttll3 mRNA", "experiment": "RT-PCR assay for TTLL3 mRNA in injected zebrafish embryos", "assay_type": "in vivo", "settings": "embryos at 7 hpf, 3 or 5 ng", "from_the_text": "(§1) MO Knockdowns in Zebrafish Embryos. TTLL3-ATG MO (5′ […] 3′; SEQ ID NO:129) and TTLL3-SP MO (5′ […] 3; SEQ ID NO:130) were obtained from Open Biosystems (Huntsville, AL). TTLL3-ATG targets the translation initiation site of ttll3 mRNA. TTLL3-SP is predicted to prevent splicing of exon 11 and cause a frame shift in exon 12. This would eliminate the coding sequence downstream of exon 10, which includes a conserved catalytic domain-encoding region. To evaluate the effect of TTLL3-SP on ttll3 mRNA, total RNA was isolated with TRIzol reagent (Invitrogen, Inc., Carlsbad, Calif.) from embryos at 7 hpf: 50 uninjected control embryos, 40 embryos injected with 3 ng TTLL3-SP MO, or 30 embryos injected with 5 ng TTLL3-SP MO. Total RNA ([…]) was used as a template for cDNA synthesis with random hexamers and oligo-dT primers and the iScript TM cDNA synthesis kit (Bio-Rad Laboratories, Hercules, Calif.). cDNA ([…]) was amplified with the following primers spanning exon 11: TTLL3-splice F, 5′-[…]-3′ (exon 10; SEQ ID NO:131); TTLL3-splice R, 5′-[…]-3′ (exon 12; SEQ ID NO:132). As expected, primers flanking exon 11 produced a shorter product in RT-PCR from embryos injected with TTLL3-SP than in controls (FIG. 50D). […] As a negative control, we injected 25 base MOs with a random base mixture at each position (Gene Tools, Inc., Philomath, Oreg.)."}, "[2]": {"test_system": "zebrafish embryos", "experiment": "Expression pattern of lefty2 in zebrafish embryos (in situ hybridization)", "assay_type": "in vivo", "from_the_text": "as §1\n(§2) Microscopy of Zebrafish. For whole-mount, in situ hybridization, embryos were fixed as previously described (Hagos and Dougan, 2007), stored in 100% methanol at −20° C., and stained with spaw, lefty1, lefty2, and cmlc2 probes (Yelon, 2001). Embryos were photographed under differential interference contrast with a Zeiss Axioplan 2 microscope with Slidebook (Intelligent Imaging Innovations, Denver, Colo.). For immunofluorescence, the embryos were manually dechorionated and fixed with 0.5% Triton X-100 and 4% paraformaldehyde in PBT (0.1% Tween-20 in PBS) at 4° C. overnight. After washing with PBT, embryos were dehydrated in methanol/PBT series and incubated overnight in 100% methanol at −20° C. After rehydration, embryos were blocked for 1-2 hr in 2% BSA, 0.5% normal goat serum,l%DMSO, 0.5% Triton X-100 in PBS, and incubated overnight at 4° C. with one of the following antibodies: 6-11 B-1 (1:1000); TAP952 (1:2000); AXO49 (1:2000); and GT335 (1:1000); polyE (1:500). After washing 3×10 min with 0.5% Triton X-100 in PBS, embryos were incubated overnight at 4° C. in anti-mouse-IgG-FITC or anti-rabbit-IgG-Cy3 (1:500; Zymed), washed (3×10 min), mounted in 100 mg/ml of DABCO (Sigma-Aldrich) in PBS, and examined on a Leica TCS SP confocal microscope."}, "[3]": {"test_system": "zebrafish embryos", "experiment": "Morphology of zebrafish morphant embryos", "settings": "in vivo", "from_the_text": "as §1"}, "[4]": {"test_system": "zebrafish embryos", "experiment": "Expression pattern of southpaw in zebrafish embryos (in situ hybridization)", "assay_type": "in vivo", "from_the_text": "as §1, §2"}, "[5]": {"test_system": "zebrafish embryos", "experiment": "Tubulin monoglycylation in cilia of zebrafish embryos (TAP952 immunofluorescence)", "assay_type": "in vivo", "settings": "72 hpf; TTLL3-ATG MO 1 ng, TTLL3-SP MO 3 ng", "from_the_text": "as §1, §2"}, "[6]": {"test_system": "zebrafish embryos", "experiment": "Heart position in zebrafish embryos, in situ hybridization", "assay_type": "in vivo", "from_the_text": "as §1, §2"}, "[7]": {"test_system": "zebrafish embryos", "experiment": "Heart position in zebrafish embryos, scoring live embryos", "assay_type": "in vivo", "from_the_text": "as §1"}},
  "data": [
    {"substance": "TTLL3-SP-MO: antisense morpholino 5′ GATGTACAGAGCTGAGATTGAAAAG 3; blocks splicing at the intron 10/exon 11 junction of ttll3 mRNA (all phosphorodiamidate morpholino (PMO))", "values": [
      {"measurement": "levels of endogenous TTLL3 mRNA", "setting": "[1]", "value": "dramatic reduction"},
      {"measurement": "lefty2 expression: Bilatera or midline, number of embryos", "setting": "[2]", "value": 2},
      {"measurement": "lefty2 expression: Bilatera or midline, percent of embryos", "setting": "[2]", "value": "(4.8%)"},
      {"measurement": "lefty2 expression: No specific signal, number of embryos", "setting": "[2]", "value": 16},
      {"measurement": "lefty2 expression: No specific signal, percent of embryos", "setting": "[2]", "value": "(38.1%)"},
      {"measurement": "lefty2 expression: left, number of embryos", "setting": "[2]", "value": 21},
      {"measurement": "lefty2 expression: left, percent of embryos", "setting": "[2]", "value": "(50%)"},
      {"measurement": "lefty2 expression: right, number of embryos", "setting": "[2]", "value": 3},
      {"measurement": "lefty2 expression: right, percent of embryos", "setting": "[2]", "value": "(7.1%)"},
      {"measurement": "hydrocephalic morphants", "setting": "[3]", "value": 81, "unit": "%"},
      {"measurement": "morphant embryos with curly tail", "setting": "[3]", "value": 64.3, "unit": "%"},
      {"measurement": "southpaw expression: Bilatera or midline, number of embryos", "setting": "[4]", "value": 22},
      {"measurement": "southpaw expression: Bilatera or midline, percent of embryos", "setting": "[4]", "value": "(53.7%)"},
      {"measurement": "southpaw expression: No specific signal, number of embryos", "setting": "[4]", "value": 6},
      {"measurement": "southpaw expression: No specific signal, percent of embryos", "setting": "[4]", "value": "(14.6%)"},
      {"measurement": "southpaw expression: left, number of embryos", "setting": "[4]", "value": 12},
      {"measurement": "southpaw expression: left, percent of embryos", "setting": "[4]", "value": "(29.3%)"},
      {"measurement": "southpaw expression: right, number of embryos", "setting": "[4]", "value": 1},
      {"measurement": "southpaw expression: right, percent of embryos", "setting": "[4]", "value": "(2.4%)"},
      {"measurement": "levels of tubulin monoglycylation/glycylation in cilia", "setting": "[5]", "value": "reduced"},
      {"measurement": "heart position left, number of embryos", "setting": "[6]", "value": 23},
      {"measurement": "heart position left, percent of embryos", "setting": "[6]", "value": 57.5, "unit": "%"},
      {"measurement": "heart position middle, number of embryos", "setting": "[6]", "value": 6},
      {"measurement": "heart position middle, percent of embryos", "setting": "[6]", "value": 15, "unit": "%"},
      {"measurement": "heart position right, number of embryos", "setting": "[6]", "value": 11},
      {"measurement": "heart position right, percent of embryos", "setting": "[6]", "value": "(27.5%)"},
      {"measurement": "heart position left, number of embryos", "setting": "[7]", "value": 21},
      {"measurement": "heart position left, percent of embryos", "setting": "[7]", "value": 64, "unit": "%"},
      {"measurement": "heart position middle, number of embryos", "setting": "[7]", "value": 8},
      {"measurement": "heart position middle, percent of embryos", "setting": "[7]", "value": 24, "unit": "%"},
      {"measurement": "heart position right, number of embryos", "setting": "[7]", "value": 4},
      {"measurement": "heart position right, percent of embryos", "setting": "[7]", "value": "(12%)"}
    ]}
  ]
}
